Reference: US20090291945A1, “CYSTEINE PROTEASE INHIBITORS” (Teijin Pharma Limited, priority 2008, published 2009)

Legend:
[1] = Metabolic stability test using human liver microsome; type: in vitro ADME; conditions: NADPH, 37° C., 25 minutes versus 0 minute, LC/MS peak area
Method: For the compounds synthesized according to the method of the above Examples and the compounds of formula (B) (the compounds disclosed in WO2002/070517), the metabolic stability test using the human liver microsome was performed and the residual rate of each compound was calculated.
To a human liver microsome solution (950 μL) was added a test compound solution (10 μL, 100 μM, acetonitrile solution) on an ice bath and the solution was divided into two equal parts, solution A and solution B. Note that the composition of the human liver microsome solution was as follows.
20 mg/mL protein human liver microsome (Xenotech LLC Lenexa, US): 10 μL 500 mM potassium phosphate buffer solution (pH 7.4): 200 μL 10 mM EDTA solution: 100 μL 60 mM MgCl2 solution: 50 μL 100 mM glucose-6-phosphate solution: 50 μL 100 I.U./mL glucose-6-phosphate dehydrogenase solution: 10 μL purified water: 530 μL
To the solution A (480 μL) was added acetonitrile (500 μL) on an ice bath, and then 25 mM NADPH solution (20 μL) was added. After vortexing, the mixture was centrifuged (3,000 rpm) at 4° C. for 10 minutes, and the supernatant was taken as the sample at the reaction time of 0 minute.
To the solution B (480 μL) was added 25 mM NADPH solution (20 μL). The mixture was incubated at 37° C. for 25 minutes. The reaction was quenched with acetonitrile (500 μL) and vortexing. The mixture was centrifuged (3,000 rpm) at 4° C. for 10 minutes, and the supernatant was taken as the sample at the reaction time of 25 minutes.
LC/MS measurement was performed for the samples at the reaction time of 0 minute and the reaction time of 25 minutes. Based on the peak area of the target molecular weight in the MS measurement, the residual rate of the sample at the reaction time of 25 minutes to the sample at the reaction time of 0 minute was calculated in percentage.

cathepsin K = molecular target: T1, cathepsin K (Homo sapiens, UniProt P43235); assay: Cathepsin K inhibitory activity (fluorescent substrate Z-Leu-Arg-MCA); type: biochemical; conditions: enzyme expressed in HEK293T, 15 min preincubation, 30 min reaction at room temperature, pH 5.5; for IC50: read-out: Activity Intensity (cathepsin K inhibitory activity, pIC50 class) (converted)
T1 construct: the active enzyme was obtained as the enzyme fraction by using detergent containing lysis buffer; made in house; host or cells: HEK293T (GenHunter Corporation), transient expression; detergent lysate used as enzyme fraction
T1 sequence (P43235 115-329): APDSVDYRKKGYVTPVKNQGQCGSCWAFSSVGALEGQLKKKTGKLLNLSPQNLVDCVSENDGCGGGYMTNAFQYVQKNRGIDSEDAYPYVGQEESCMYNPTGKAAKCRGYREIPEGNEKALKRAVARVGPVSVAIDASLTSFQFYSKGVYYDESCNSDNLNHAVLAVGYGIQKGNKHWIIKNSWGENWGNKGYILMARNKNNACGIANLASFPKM
Summary of the method: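 Enzyme was HEK293T-expressed cathepsin K in pH 5.5 acetate buffer with 2 mM DTT, preincubated 15 min at room temperature with compound. Reaction started with Z-Leu-Arg-MCA (solution prepared at 10 μM), run 30 min, and AMC fluorescence read at 355/460 nm. IC50 taken from the curve of % inhibition vs DMSO.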

Residual Rate at 25 minutes (%) [1] [%] | IC50 (cathepsin K) [nM] | Activity Intensity (cathepsin K inhibitory activity, pIC50 class) (cathepsin K) | Structure (SMILES)
87 | 3.16 to 31.6 |  | CC[C@@H](CNc1ccc(OC2(C(=O)O)CC2)cc1OC)NC(=O)[C@H](CC(C)C)N[C@@H](Cc1ccccc1)C(F)(F)F [Compound 124]
90 | ≤ 3.16 |  | CC(C)C[C@H](N[C@@H](c1ccccc1)C(F)(F)F)C(=O)N[C@@H](CCCCN)CNc1ccc(N2CCOCC2)cc1 [Compound 126]
87 | 3.16 to 31.6 |  | CC(C)C[C@H](N[C@@H](c1ccccc1)C(F)(F)F)C(=O)N[C@@H](CCCN)CNc1ccc(N2CCOCC2)cc1 [Compound 127]
75 | 3.16 to 31.6 |  | CC(C)C[C@H](N[C@@H](c1ccccc1)C(F)(F)F)C(=O)N[C@@H](CCN)CNc1ccc(N2CCOCC2)cc1 [Compound 129]
85 | 3.16 to 31.6 |  | CC(C)(F)C[C@H](N[C@@H](c1ccccc1)C(F)(F)F)C(=O)N[C@@H](CCN)CNc1ccc(N2CCOCC2)cc1 [Compound 130]
123 | 3.16 to 31.6 |  | CC[C@@H](CNc1ccc(OC(C)(C)C(=O)O)cc1OC)NC(=O)[C@H](CC(C)(C)F)N[C@@H](c1ccccc1)C(F)(F)F [Compound 131, 2-{4-[((2S)-2-{(2S)-2-[((1S)-2,2,2-trifluoro-1-phenylethyl)amino]-4-fluoro-4-methylpentanoylamino}butyl)amino]-3-methoxyphenoxy}-2-methylpropanoic acid]
101 | 3.16 to 31.6 |  | CC[C@@H](CNc1ccc(OC(C)C(=O)O)cc1OC)NC(=O)[C@H](CC(C)(C)F)N[C@@H](c1ccccc1)C(F)(F)F (stereo partly drawn) [Compound 140, 2-{4-[((2S)-2-{(2S)-2-[((1S)-2,2,2-trifluoro-1-phenylethyl)amino]-4-fluoro-4-methylpentanoylamino}butyl)amino]-3-methoxyphenoxy}propanoic acid]
70 | 31.6 to 10000 |  | CC[C@@H](CNc1ccc(OC(F)(F)C(=O)O)cc1OC)NC(=O)[C@H](CC(C)(C)F)N[C@@H](c1ccccc1)C(F)(F)F [Compound 141]
96 |  | ++ (7.5≦pIC50<8.5: ++) | CC[C@@H](CNc1ccc(OC(C)C(=O)O)cc1OC)NC(=O)[C@H](CC(C)(C)F)N[C@@H](c1ccccc1)C(F)(F)F (stereo partly shown) [Compound 142]
88 | ≤ 3.16 |  | CC[C@@H](CNc1ccc(N2CCC(C(=O)O)CC2)cc1)NC(=O)[C@H](CC(C)C)N[C@@H](c1ccccc1)C(F)(F)F [Compound 145]
80 | ≤ 3.16 |  | CC[C@@H](CNc1ccc(N2CCC(C(=O)O)CC2)cc1)NC(=O)[C@H](CC(C)(C)F)N[C@@H](c1ccccc1)C(F)(F)F [Compound 147]
85 | ≤ 3.16 |  | CC[C@@H](CNc1ccc(N2CCC[C@H](C(=O)O)C2)cc1)NC(=O)[C@H](CC(C)C)N[C@@H](c1ccccc1)C(F)(F)F [Compound 148]
87 | ≤ 3.16 |  | CC[C@@H](CNc1ccc(N2CCC[C@@H](C(=O)O)C2)cc1)NC(=O)[C@H](CC(C)C)N[C@@H](c1ccccc1)C(F)(F)F [Compound 149]
 | 3.16 to 31.6 |  | CC[C@@H](CNc1ccc(OC)cc1OC)NC(=O)[C@H](CC(C)C)N[C@@H](c1ccc(O)cc1)C(F)(F)F [Compound 157, (2S)—N-((1S)-1-{[(2,4-dimethoxyphenyl)amino]methyl}propyl)-2-{[(1S)-2,2,2-trifluoro-1-(4-hydroxyphenyl)ethyl]amino}-4-methylpentanamide]
 | ≤ 3.16 |  | CC[C@@H](CNc1ccc(N2CCOCC2)cc1)NC(=O)[C@H](CC(C)C)N[C@@H](c1ccc(O)cc1)C(F)(F)F [Compound 158, (2S)—N-((1S)-1-{[(4-morpholin-4-ylphenyl)amino]methyl}propyl)-2-{[(1S)-2,2,2-trifluoro-1-(4-hydroxyphenyl)ethyl]amino}-4-methylpentanamide]
 | ≤ 3.16 |  | CC[C@@H](CNc1ccc(OCC#N)cc1OC)NC(=O)[C@H](CC(C)(C)F)N[C@@H](c1ccccc1)C(F)(F)F [Compound 161, (2S)—N-[(1S)-1-({[4-(cyanomethoxy)-2-methoxyphenyl]amino}methyl)propyl]-2-[((1S)-2,2,2-trifluoro-1-phenylethyl)amino]-4-fluoro-4-methylpentanamide]

The next lines start with the molecule.

Structure (SMILES) | Residual Rate at 25 minutes (%) [1] [%] | IC50 (cathepsin K) [nM] | Activity Intensity (cathepsin K inhibitory activity, pIC50 class) (cathepsin K)
CC(C)C[C@H](Nc1cscc1-c1ccc(N2CCNCC2)cc1)C(=O)NCCNc1ccc(OCc2ccccc2)cc1 [B, reference compound] | 0 |  | 
CC[C@@H](CNc1ccc(OC)cc1OC)NC(=O)[C@H](CC(C)(C)F)N[C@@H](c1ccc(-c2ccc(S(C)(=O)=O)cc2)cc1)C(F)(F)F [Compound 5, (2S)—N-((1S)-1-{[(2,4-dimethoxyphenyl)amino]methyl}propyl)-2-[((1S)-2,2,2-trifluoro-1-{4-[4-(methylsulfonyl)phenyl]phenyl}ethyl)amino]-4-fluoro-4-methylpentanamide] | 0 | ≤ 3.16 | 
CC[C@@H](CNc1ccc(OC)cc1OC)NC(=O)[C@H](CC(C)(C)F)N[C@@H](c1ccccc1)C(F)(F)F [Compound 7, (2S)—N-((1S)-1-{[(2,4-dimethoxyphenyl)amino]methyl}propyl)-2-[((1S)-2,2,2-trifluoro-1-phenylethyl)amino]-4-fluoro-4-methylpentanamide] | 0 | ≤ 3.16 | 
CC[C@@H](CNc1ccc(N2CCOCC2)cc1)NC(=O)[C@H](CC(C)C)N[C@@H](c1ccc(=O)[nH]c1)C(F)(F)F [Compound 31] | 77 | ≤ 3.16 | 
CC[C@@H](CNc1ccc(N2CCOCC2)cc1)NC(=O)[C@H](CC(C)C)N[C@@H](c1ccc(F)cc1)C(F)(F)F [Compound 36] | 0 | ≤ 3.16 | 
CC[C@@H](CNc1ccc(N2CCOCC2)cc1)NC(=O)[C@H](CC(C)C)N[C@@H](c1ccc(=O)n(C)c1)C(F)(F)F [Compound 43] | 46 | ≤ 3.16 | 
CC[C@@H](CNc1ccc(-c2ccccc2)cc1)NC(=O)[C@H](CC(C)C)N[C@@H](c1ccc(OC)nc1)C(F)(F)F [Compound 46] | 65 | 31.6 to 10000 | 
COc1ccc(NC[C@H](CCS(C)(=O)=O)NC(=O)[C@H](CC(C)C)N[C@@H](c2ccc(=O)[nH]c2)C(F)(F)F)c(OC)c1 [Compound 81] | 41 | 31.6 to 10000 | 
CC(C)C[C@H](N[C@@H](c1ccccc1)C(F)(F)F)C(=O)N[C@@H](CC#N)CNc1ccc(N2CCOCC2)cc1 [Compound 93] | 63 | 3.16 to 31.6 | 
CC(C)C[C@H](N[C@@H](c1ccccc1)C(F)(F)F)C(=O)N[C@@H](CCCNC(=N)N)CNc1ccc(N2CCOCC2)cc1 [Compound 101] | 67 | ≤ 3.16 | 
CN(C)C[C@@H](CNc1ccc(N2CCOCC2)cc1)NC(=O)[C@H](CC(C)(C)F)N[C@@H](c1ccccc1)C(F)(F)F [Compound 107] | 50 | ≤ 3.16 | 
CC[C@@H](CNc1ccc(OCC(=O)O)cc1OC)NC(=O)[C@H](CC(C)(C)F)N[C@@H](c1ccccc1)C(F)(F)F [Compound 117, 2-{4-[((2S)-2-{(2S)-2-[((1S)-2,2,2-trifluoro-1-phenylethyl)amino]-4-fluoro-4-methylpentanoylamino}butyl)amino]-3-methoxyphenoxy}acetic acid] | 111 | ≤ 3.16 | 
CC[C@@H](CNc1ccc(OC2(C(=O)O)CC2)cc1OC)NC(=O)[C@H](CC(C)(C)F)N[C@@H](c1ccccc1)C(F)(F)F [Compound 118] | 76 | ≤ 3.16 | 
CC[C@@H](CNc1ccc(OCC(=O)O)cc1OC)NC(=O)[C@H](CC(C)C)N[C@@H](c1ccc(OC)nc1)C(F)(F)F [Compound 120] | 108 | ≤ 3.16 | 
CC[C@@H](CNc1ccc(OCC(=O)O)cc1OC)NC(=O)[C@H](CC(C)C)N[C@@H](c1cccnc1)C(F)(F)F [Compound 121] | 105 | 3.16 to 31.6 | 
